According to PMC9775191, “A Subset Screen of the Compounds Australia Scaffold Library Identifies 7-Acylaminodibenzoxazepinones as Potent and Selective Hits for Anti-Giardia Drug Discovery” (Biomedicines, 2022):

Tested on: G. duodenalis BRIS/91/HEPU/1279
Test: Primary Giardia screen at 10 µM (live-cell imaging, automated counting)
Format: cell-based, Giardia duodenalis
Conditions: for % Inhibition n=1 48h / % Inhibition n=1 24h: first singlicate assay; for % Inhibition n=2 24h / % Inhibition n=2 48h: re-assessment
Description: Each compound was assessed in singlicate, at a final concentration of 10 μM (0.4 μL of a 5 mM stock; diluted to a final volume of 200 μL in culture medium; 0.2% DMSO). […] Plates were incubated in sealed chambers filled with 3% O2, 5% CO2 in N2 and growth was assessed at 24 and 48 h using live cell imaging and automated counting as previously described. Growth inhibition was calculated by subtracting media only background counts and determining percentage growth relative to vehicle (0.2% DMSO) controls. The reliability of these assays was assessed by calculating Z’ factors for each plate as previously described.

| Structure (SMILES) | % Inhibition n=1 48h | also measured |
| --- | --- | --- |
| O=C(NCc1ccccc1)c1ccc(-c2cc(N3CCOCC3)ncn2)cc1 [SN00794761] | 12.2% | – |
| CNC(=O)N1CCC(C2CCN(C(=O)c3ccncc3)CC2)C1 (centres unmarked) [SN00801593] | 4.5% | – |
| Cc1coc(C)c1C(=O)CC1(O)C(=O)Nc2ccccc21 (centres unmarked) [SN00783840] | 0.0% | – |
| CCCn1c(=O)c2c(nc3n2CCN3c2ccc(CC)cc2)n(C)c1=O [SN00779194] | 0.0% | – |
| Cc1ccc(NC(=O)Nc2ccc3c(c2)CN(Cc2ccccc2)C3)c(C)c1 [SN00796327] | 41.2% | – |
| COc1ccc2oc(-c3noc(C(=O)NCCN4CCCCCC4)n3)c(C)c2c1 [SN00795214] | 52.1% | Average % Inhibition 24h: 11.6%; % Inhibition n=1 24h: 16.8%; % Inhibition n=2 24h: 6.3%; Average % Inhibition 48h: 56.6%; % Inhibition n=2 48h: 61.1% |
| Cc1cc(C)n(Cc2ccc(C(=O)N3CCN(Cc4n[nH]c(C)n4)CC3)cc2)n1 [SN00782137] | 1.5% | – |
| Cc1ccc(NC(=O)c2cc(-c3ccc4c(c3)OCCO4)on2)cc1C [SN00786283] | 2.9% | – |
| CCCN1C(=O)c2c(C(=O)NCCc3ccccc3)ncn2CC1(C)C(=O)NCCC(C)C (centres unmarked) [SN00791583] | 9.0% | – |
| CCC(=O)N1CCC2(CC1)N=C(c1cccc(OC)c1)C(=O)N2 [SN00792731] | 18.9% | – |
| CCOC(=O)c1sc2nc(C)nc(N3CCCCC3C)c2c1C (centres unmarked) [SN00783508] | 0.0% | – |
| CCCNC(=O)CCNC(=O)N1CCCC1c1nc2cc(C)ccc2[nH]1 (centres unmarked) [SN00776915] | 37.1% | – |
| O=C(CCN1C(=O)CCC1=O)N1CCCC(N2CCCCCC2)C1 (centres unmarked) [SN00772233] | 7.1% | – |
| CCn1cc2c(n1)-c1c(oc(C(=O)Nc3ccc(F)cc3)c1C)CC2 [SN00787412] | 6.9% | – |
| CCc1nc(C)c2c(C)c(C(=O)N3CCN(c4ncccn4)CC3)sc2n1 [SN00779630] | 22.3% | – |
| O=C(CN1C(=O)CC2(CCCCC2)C1=O)Nc1ccc([N+](=O)[O-])cc1 [SN00777618] | 47.2% | – |
| CCCNC(=O)c1cncc(-c2cccc(NC(=O)CC)c2)c1 [SN00799189] | 0.0% | – |
| O=C(Cn1c(=O)c(=O)n(Cc2ccccc2)c2ccccc21)NCCCN1CCCC1 [SN00792985] | 20.3% | – |
| Cc1cc(C)cc(N2CCN(CCCNC(=O)c3nc(-c4ccncn4)no3)CC2)c1 [SN00802991] | 0.0% | – |
| CCOc1ccc(-n2c(=O)c3sc4ncccc4c3n(CC(=O)N3CCCCC3)c2=O)cc1 [SN00790501] | 5.1% | – |
| Cc1ccc2oc(-c3noc(C4CC(=O)N(c5ccccc5)C4)n3)c(C)c2c1 (centres unmarked) [SN00796597] | 2.9% | – |
| COc1c(C(=O)Nc2ccccc2)oc2ccc(NC(=O)C3CCCCC3)cc12 [SN00798797] | 3.8% | – |
| O=C(c1cnccn1)N1CCN(C(=O)C2CCCC2)CC1 [SN00774707] | 8.7% | – |
| c1ccc(-c2nnc(CN3CCn4c(nnc4C4CC4)C3)o2)cc1 [SN00773167] | 0.0% | – |
| Cc1c(-c2nc(-c3cccnc3)no2)oc2ccc(S(=O)(=O)N3CCOCC3)cc12 [SN00791042] | 1.1% | – |

| Structure (SMILES) | % Inhibition n=1 48h | also measured |
| --- | --- | --- |
| CCc1nc(N2CCCC2=O)sc1C(=O)Nc1ccc(C)c(C)c1 [SN00796500] | 0.0% | – |
| O=S(=O)(c1ccc(F)cc1)N1CCN=C1N1CCCCC1 [SN00790442] | 15.7% | – |
| CCn1nnc(NCc2ccc(-c3ccccc3)cc2)n1 [SN00786962] | 14.2% | – |
| O=C(NCc1ccc(F)cc1)N1CCCCC1c1nc(-c2ccccc2)no1 (centres unmarked) [SN00772110] | 0.0% | – |
| CCc1nnsc1C(=O)N1CCCN(Cc2cnn(CC)c2)CC1 [SN00782455] | 0.0% | – |
| COc1ccccc1N1CCN(C(=O)c2cc(C3CC3)n[nH]2)CC1 [SN00787811] | 0.0% | – |
| CCc1cc(C2CCCN2C(=O)Cc2ccccc2F)on1 (centres unmarked) [SN00793836] | 10.7% | – |
| COC(=O)c1cn(CC(=O)NCc2cc3c(cc2C)OCCCO3)c2ccccc12 [SN00794141] | 14.4% | – |
| O=C(NCCCN1CCN(c2ccccc2)CC1)c1noc2c1CCCCC2 [SN00788368] | 9.7% | – |
| O=C(c1cc(-c2cccnc2)[nH]n1)N1CCCC1 [SN00799309] | 13.7% | – |
| Cc1nn(C(C)C)c(C)c1S(=O)(=O)N1CCN(C(=O)c2cccs2)CC1 [SN00790783] | 3.8% | – |
| Cc1ccc(NC(=O)c2cc3c(=O)n(CC(C)C)ccc3n2C)cc1 [SN00797828] | 17.5% | – |
| CCOc1ccc(CNC(=O)c2cccc(NC(=O)c3nnc(C4CC4)s3)c2)cc1 [SN00790732] | 0.0% | – |
| COC(=O)C(C)n1cnc2c(nnn2Cc2ccc(C)cc2)c1=O (centres unmarked) [SN00802538] | 3.2% | – |
| COc1ccc(-n2c(CN3CCN(S(=O)(=O)c4cc(C)ccc4C)CC3)nc3cccnc32)cc1 [SN00796116] | 13.7% | – |
| CCc1c(C2CCN(C(=O)c3cnccn3)CC2)noc1N [SN00798959] | 12.1% | – |
| O=C(Nc1nc(-c2cc3ccccc3oc2=O)cs1)c1cccc(C(F)(F)F)c1 [SN00769798] | 0.0% | – |
| O=c1ccccn1Cc1nnc(-c2ccc(Br)o2)o1 [SN00773952] | 8.9% | – |
| COc1ccc(CNC(=O)N2CCN(C)CC2c2ccccc2)cn1 (centres unmarked) [SN00782363] | 0.0% | – |
| Cc1nn(-c2ccc(F)cc2)c2nc(N3CCCN(C(=O)Cc4cccs4)CC3)sc12 [SN00803162] | 27.0% | – |
| Cn1c(=O)c2c(-c3ccccc3)c(Nc3ccccc3)oc2n(C)c1=O [SN00788641] | 9.4% | – |
| Cc1ccc(CNC(=O)C2(S(=O)(=O)c3ccc(Cl)cc3)CC2)cc1 [SN00784605] | 11.5% | – |
| Cc1ccc(N2CCCN(C(=O)CN(C)C3CC3)CC2)nn1 [SN00772050] | 11.9% | – |
| Cc1ccc(NC(=O)Cc2nc(-c3ccc4c(c3)CC(=O)N4C)cs2)cc1 [SN00777029] | 10.0% | – |
| Clc1ccc(Nc2nc3ccccc3n3nnnc23)cc1 [SN00784679] | 4.0% | – |

| Structure (SMILES) | % Inhibition n=1 48h | also measured |
| --- | --- | --- |
| Cc1cc(C2CCCN(C(=O)CCc3cnn(C)c3)C2)n[nH]1 (centres unmarked) [SN00782611] | 7.8% | – |
| CC(=O)N1CCCc2cc(S(=O)(=O)N3CCN(c4ccc(F)cc4)CC3)ccc21 [SN00793330] | 0.2% | – |
| CC1(C(=O)NCc2cccc(F)c2)CCCN(C(=O)Cc2cccs2)C1 (centres unmarked) [SN00795886] | 29.2% | – |
| Cn1c(=O)c2cc(C(=O)NC3CCSC3=O)n(Cc3ccccc3)c2n(C)c1=O (centres unmarked) [SN00772623] | 25.0% | – |
| Cn1c(=O)n(CC(=O)C(C)(C)C)c(=O)c2c1nc1oc(C(C)(C)C)cn12 [SN00779257] | 18.6% | – |
| NC(=O)c1cnc(N2CCC3(CC2)CC3c2nc(-c3cccc(Cl)c3)no2)c(Cl)c1 (centres unmarked) [SN00773335] | 0.0% | – |
| COc1ccc(N2C(=O)NC3CC2(C)Oc2ccc(OC)cc23)cc1 (centres unmarked) [SN00784647] | 11.2% | – |
| Cc1nc(N(C)C)cc(N2CCN(C(=O)Nc3cccc(C(F)(F)F)c3)CC2)n1 [SN00786482] | 55.4% | Average % Inhibition 24h: 10.6%; % Inhibition n=1 24h: 15.1%; % Inhibition n=2 24h: 6.1%; Average % Inhibition 48h: 29.2%; % Inhibition n=2 48h: 2.9% |
| CN(C)CCCN1C(=O)C(O)=C(C(=O)c2cc(Cl)ccc2O)C1c1ccco1 (centres unmarked) [SN00776642] | 14.6% | – |
| c1ccc(-n2nnnc2Oc2ccc(-c3nc4ccccc4s3)cc2)cc1 [SN00775768] | 19.1% | – |
| COc1ccc(CN2CCN(C(=O)c3c(C)oc4c3C3=NCCN3C=N4)CC2)c(OC)c1OC [SN00791620] | 7.4% | – |
| Fc1ccc(-c2cc(C(F)(F)F)nc(NCc3ccco3)n2)cc1 [SN00784252] | 2.3% | – |
| COc1ccc(Cn2cccc2C2=NC(C)(C)CO2)cc1 [SN00784853] | 19.2% | – |
| CSCCC(NS(=O)(=O)c1ccc(C)cc1)C(=O)Nc1nc(C)c(-c2ccccn2)s1 (centres unmarked) [SN00779415] | 0.0% | – |
| COCCCN1C(=O)CSc2c(c(C)nn2-c2ccccc2)C1C(=O)NCc1ccccc1OC (centres unmarked) [SN00791374] | 0.0% | – |
| COc1cc(-c2noc(-c3cc(-c4ccco4)n[nH]3)n2)cc(OC)c1OC [SN00791289] | 2.3% | – |
| CCN(CC)CCCC(C)NC(=O)c1cc(-c2ccco2)on1 (centres unmarked) [SN00802522] | 3.7% | – |
| COc1cc(OC)c(NC(=O)N2CCN(c3nc4ccccc4n3C)CC2)cc1Cl [SN00794807] | 0.0% | – |
| CN1C(=O)CC(C(=O)NNC(=O)COc2ccccc2-c2ccccc2)C1c1cccnc1 (centres unmarked) [SN00780071] | 9.4% | – |
| O=C(Cn1cnc([N+](=O)[O-])n1)NCCc1ccccc1 [SN00783937] | 33.8% | – |
| CCCC(=O)Nc1cc(F)c2nc(N3CCCCC3)ccc2c1 [SN00795955] | 0.0% | – |
| Cc1nn(CCC(=O)Nc2cccc(F)c2)c(=O)c2noc(C)c12 [SN00778869] | 21.9% | Average % Inhibition 24h: 0.0%; % Inhibition n=1 24h: 0.0%; % Inhibition n=2 24h: 0.0%; Average % Inhibition 48h: 40.9%; % Inhibition n=2 48h: 59.9% |
| O=S(=O)(Cc1ccccc1)Nc1cccc(-c2nnc(Cc3ccc4c(c3)OCO4)o2)c1 [SN00795993] | 80.2% | Average % Inhibition 24h: 17.2%; % Inhibition n=1 24h: 34.4%; % Inhibition n=2 24h: 0.0%; Average % Inhibition 48h: 46.9%; % Inhibition n=2 48h: 13.6% |
| Cc1ccc(CNC(=O)N2CCCN(C3CCN(CC4CC4)C3=O)CC2)cc1 (centres unmarked) [SN00802402] | 5.4% | – |
| Cc1ccc(Cl)cc1-n1ncc2c(NCCO)ncnc21 [SN00794417] | 8.1% | – |
